The subject of experiment [1] is arginine vasopressin. The experiment is described as follows: Change in mean arterial pressure after AVP injection in rats, before and after nasal administration of the selective antagonist. The class given is in vivo, Wistar rats. As to the method: On the day before experimental testing, each rat was placed under ether anesthesia, and the right iliac artery and the right external jugular vein were catherized with PE-50 tubing. On the day following surgery, with the animal remaining unrestrained, the mean arterial pressure was monitored via a Hewlett-Packard 1280C transducer and a 7702B Recorder.
A vasopressin injection was prepared by diluting commercially obtained Pitressin at 20 U/ml concentration with 5% dextrose in water (hereinafter "D5W") to yield a sterile 20 mU/ml final concentration. […] All intravenous injections of vasopressin were flushed through using an additional volume comprising 0.2-0.3 ml of D5W.
Each experimental animal was tested in two stages: initially, two 0.1 ml injections each containing 2.0 millipressor units of arginine vasopressin were given through the venous catheter over a ten minute period and the individual changes in mean arterial pressure recorded. This stage identified each of the test animals as being susceptible to the physiological effects of vasopressin. The second stage of the experiment comprised release of 0.1 ml containing 250 ug of the selective antagonist onto the nasal mucosae of the rat via a PE-50 catheter which had been inserted into one of the nostrils to a depth of about four millimeters. This administration of the antagonist as a nasal spray onto the mucosae of the nose was followed by repeated injection of 0.1 ml volumes, each containing 2.0 millipressor units of arginine vasopressin, at 10, 20, 30, 60, and 120 minutes after the administration of the selective antagonist. The change in mean arterial pressure was recorded at each of these intervals after each injection of the vasopressin.

Experiment [2] deals with arginine vasopressin. The note with it: 0.5 mg i.v.; exogenous AVP 20 mU/kg; cited from earlier work.

Consider two compounds from patent publication US4762820A, “Therapeutic treatment for congestive heart failure” (Trustees of Boston University, priority 1986, dated 1988).

Several values for one entry are separate records, joined by “and”; a condition that tells them apart may be missing. Equal entries are not always repeated.

Consider `NC(=O)CC[C@@H]1NC(=O)[C@H](Cc2ccccc2)NC(=O)[C@H](Cc2ccc(O)cc2)NC(=O)[C@@H](N)CSSC[C@@H](C(=O)N2CCC[C@H]2C(=O)N[C@@H](CCCN=C(N)N)C(=O)NCC(N)=O)NC(=O)[C@H](CC(N)=O)NC1=O` [AVP, arginine vasopressin, reference compound], for which the “mean change in arterial pressure” value in the experiment with arginine vasopressin [1] (2.0 millipressor units AVP i.v., mean of the three test animals) is “about 35 mmHg”. Besides, the “Changes in Mean Arterial Pressure After AVP Injection Alone” value with arginine vasopressin [1] (individual rats, 2.0 millipressor units AVP i.v., no antagonist) is “+37.5 mm Hg and +38.5 mm Hg and +29.0 mm Hg”.

With “[1-(β-mercapto-β,β-cyclopentamethylenepropionic acid), 2-(O-methyl)tyrosine]arginine vasopressin [AVP Antagonist]”, the “inhibition of the blood pressure response to exogenous arginine vasopressin” value in the experiment with arginine vasopressin [2] is recorded as 80%. The “effect of repeated 2.0 mU vasopressin injection after nasal spraying” value in the experiment with arginine vasopressin [1] (250 ug nasal, for at least the two hours of the test) is given as “no significant effect”. Further, the “Changes in Mean Arterial Pressure After Antagonist Adm. + AVP Injections, 10'” value with arginine vasopressin [1] (individual rats, 250 ug antagonist onto nasal mucosae, 2.0 mU AVP i.v. 10 min later) was 0 mm Hg and +5 mm Hg. For the same compound, the “Changes in Mean Arterial Pressure After Antagonist Adm. + AVP Injections, 20'” value in the experiment with arginine vasopressin [1] (individual rats, 250 ug antagonist onto nasal mucosae, 2.0 mU AVP i.v. 20 min later) was 0 mm Hg and +5 mm Hg. The “Changes in Mean Arterial Pressure After Antagonist Adm. + AVP Injections, 30'” value with arginine vasopressin [1] (individual rats, 250 ug antagonist onto nasal mucosae, 2.0 mU AVP i.v. 30 min later) was 0 mm Hg and +5 mm Hg. The “Changes in Mean Arterial Pressure After Antagonist Adm. + AVP Injections, 60'” value in the experiment with arginine vasopressin [1] (individual rats, 250 ug antagonist onto nasal mucosae, 2.0 mU AVP i.v. 60 min later) is 0 mm Hg and +5 mm Hg. In the experiment on arginine vasopressin [1] (individual rats, 250 ug antagonist onto nasal mucosae, 2.0 mU AVP i.v. 120 min later), the “Changes in Mean Arterial Pressure After Antagonist Adm. + AVP Injections, 120'” value is 0 mm Hg and +5 mm Hg.
